According to patent US20260232666A1, “COMPOSITIONS AND METHODS FOR INHIBITION OF RAS” (TheRas, Inc., priority 2023, published 2026):

Assays:
[1] = target: T1, GppNHp-loaded KRAS4b (amino acids 1-169) G12C/C118S protein (Homo sapiens, UniProt P01116, C118S/G12C); assay: Covalent cysteine 12 modification by MALDI-TOF MS, GppNHp-loaded KRAS G12C; format: binding; conditions: 15 minutes reaction time point
T1 construct: KRAS4b (amino acids 1-169) G12C/C118S protein; made in house
Method: (§1) Biological Example 1: Covalent Cysteine 12 Modification Analysis Using Matrix Assisted Laser Desorption Ionization-Time of Flight Mass Spectrometry (MALDI-TOF MS)
(§2) MALDI-TOF MS analysis was performed using 1 μM protein (KRAS G12C), and 1:2.5 protein to compound ratio.
(§3) Reaction: 1 μM of GppNHp, GTP, or GDP-loaded KRAS4b (amino acids 1-169) G12C/C118S protein (produced in-house by Protein Expression Laboratory, FNLCR/Leidos Biomed) in 20 mM 4-(2-hydroxyethyl)-1-piperazineethanesulfonic acid (HEPES) buffer containing 150 mM NaCl, 1 mM MgCl2, pH 7.3 was prepared freshly before assay. Twelve-μL aliquots of protein were dispensed onto low volume 384-well plate, then 30 nL of tested compounds from 1 mM DMSO stocks were added to appropriate wells using ECHO 555 acoustic liquid handler (Labcyte Inc.). For each reaction/assay, three blanks were prepared by mixing 12 μL of protein solution with 30 nL DMSO. The contents of the wells were carefully mixed by aspiration, and then each plate was sealed with an adhesive cover, centrifuged at 2000 g for 1 minute, and kept in the dark at room temperature until 5 min, 15 min, 30 min, 2 h, or 6 h collections.
(§4) Target pretreatment: Before each assay MALDI target (Bruker MPT 384 ground steel BC) was pre-treated by pipetting on each spot 0.75 μL of saturated sinapinic acid in acetonitrile (ACN).
(§5) Sample preparation: At collection time point, 2 μL of reaction mixtures were pipetted out into 15 μL MALDI matrix solution (saturated solution of sinapinic acid in 1:1 ACN:water solution containing 0.75% trifluoroacetic acid (TFA)) deposited on 384 well polypropylene plate. Resulting solution was mixed by aspiration, centrifuged at 2000 g for 1 minute, then 1.5 μL aliquots were dispensed on pre-treated MALDI target using Beckman Coulter Biomek FXP 96/384-Span-8 Laboratory Automation Workstation. Finally, the MALDI target was dried under mild vacuum to produce spots with fine crystalline structure.
(§6) Measurements: MALDI-TOF measurements were performed on a Bruker Daltonics rapiflex Tissuetyper TOF-TOF mass spectrometer using linear mode and mass range from 18.6 to 21.6 kDa. Detector gain was set to 3.3×(483 V), sample rate to 5 GS/s, real time smoothing to medium (175 MHz), laser smart beam pattern was set to: “MS Thin Layer M5”, and the laser frequency was 10000 Hz. Spectra were automatically collected using custom AutoXecute method. Laser power was auto adjusted using fuzzy control. The peak selection range was set to be between 19000 and 21500 Da. Peak evaluation uses half width parameter set to be smaller than 40 Da for processed spectrograms (centroid peak detection; smoothed by SavitzkyGolay algorithm using 7 m/z width and 2 cycles; baseline was subtracted using median algorithm with flatness 1 and median level 0.01). Fuzzy control used Proteins/Oligonucleotides protocol with minimum half width 1/10 times above threshold. Up to 40000 satisfactory shots were collected in 10000 shot steps. Dynamic termination was implemented to finish data collection when peak signal/noise ratio was reaching value of 50.
(§7) Spectra processing: Spectra were smoothed by SavitzkyGolay algorithm using 7 m/z width and three cycles. Centroid peak detection algorithm was used with signal to noise threshold set to 6, relative intensity threshold 4%, peak width 10 m/z and median baseline subtraction using flatness of 1 and median level of 0.01. Peak intensity and area under the peak were evaluated and recorded for all peaks between 19,300 Da and 21,550 Da.
(§8) Calculation of percent modification: Percent modification was calculated as a ratio of peak height for protein modified by compound to sum of peak height of remaining protein plus peak height for protein modified by compound. If multiple modifications were observed each was calculated as a ratio of peak height for given modification versus sum of peak heights for all observed protein species. Data reported in Table 4 are from 15 minutes reaction time point. […]

[2] = target: T2, GTP-loaded KRAS4b (amino acids 1-169) G12C/C118S protein (Homo sapiens, UniProt P01116, C118S/G12C); assay: Covalent cysteine 12 modification by MALDI-TOF MS, GTP-loaded KRAS G12C; format: binding; conditions: 15 minutes reaction time point
T2 construct: KRAS4b (amino acids 1-169) G12C/C118S protein; made in house
Method: as §1, §2, §3, §4, §5, §6, §7, §8

[3] = target: T3, GDP-loaded KRAS4b (amino acids 1-169) G12C/C118S protein (Homo sapiens, UniProt P01116, C118S/G12C); assay: Covalent cysteine 12 modification by MALDI-TOF MS, GDP-loaded KRAS G12C; format: binding; conditions: 15 minutes reaction time point
T3 construct: KRAS4b (amino acids 1-169) G12C/C118S protein; made in house
Method: as §1, §2, §3, §4, §5, §6, §7, §8

pERK in NCI-H358 cells = assay: Cell-based pERK HTRF assay (pERK inhibition in H358 cells); conditions: 30 min incubation
Method: Biological Example 3: Cell-Based pERK HTRF Assay
pERK assays (Perkin Elmer) were used to determine the effectiveness of compounds of the present disclosure in disrupting KRAS G12C protein/effector signaling in cells.
On Day 1, cells (NCI-H358) were seeded into 96-well plates at 4×10^4 cells/well in complete growth media (RPMI, 10% FBS).
On Day 2, cells were treated with compounds at 0.25% DMSO. The source plate was created with compounds diluted in media at 5-fold the final assay concentration. The compounds were run in a 9-point concentration curve starting at 75 μM, with a 3-fold dilution between concentrations. 20 μL was transferred onto the cell plates (final volume in wells was 100 μL). Plates were harvested after 30 min incubation by aspirating media and adding kit-supplied 1× supplemented lysis buffer to all wells (75 μl per well). Plates were then placed on a plate shaker and incubated at 850 rpm for an additional 30 min.
Antibody mixture solution was prepared by diluting aliquoted d2 and Eu Cryptate antibodies 1:20 in kit supplied detection buffer, then mixed the diluted antibodies solutions (1:1 v:v). 4 μL of this solution was then added to a 384-well detection plate (Perkin Elmer; 6008230).
Samples were homogenized by pipetting up and down and then transferred (16 μL of cell lysates) from the 96-well cell culture plate to two wells of the HTRF 384-well detection plate containing the antibody solution. Plates were centrifuged (524 g for […]) and allowed to incubate between 4 and 24 h at room temperature. Maximum signal is reached after 4 h incubation time and remains stable over a period of 24 hours. Therefore, readings can be made between 4 and 24 h of incubation. Plates were centrifuged again (524 g for 1 min), and analyzed on the En Vision plate reader using the following settings: Excitation 320 nm, Bandwidth 75 nm; Emission 615 nm, Bandwidth 85 nm; Gain 100%; Flashes 100; Lag 60 μs.
The percent of modification of GppNHp, GTP, or GDP loaded KRAS G12C by MALDI-TOF MS, biochemical Raf1 RBD-KRAS G12C-GppNHp disruption assay IC50, and pERK inhibition IC50 of selected compounds described herein are shown in Table 4. For percent of modification at 15 minutes (MALDI-TOF MS) of GppNHp, GTP, or GDP loaded KRAS G12C: A: percent of modification ≥70%; B: 50≤percent of modification <70%; C: 10%≤percent of modification <50%; D: percent of modification <10%. […] For pERK inhibition in H358 cell assay: A: IC50≤0.1 μM; B: 0.1 μM<IC50≤1 μM; C: IC50>1 μM. Blanks in the table represent that compound was not tested in the indicated assay.

Row | Compound | GppNHp-KRAS G12C percent of modification [1] | GTP-KRAS G12C percent of modification [2] | GDP-KRAS G12C percent of modification [3] | IC50 (pERK in NCI-H358 cells; Homo sapiens, NCI-H358, 0.5 h) | IC50 (pERK in NCI-H358 cells)
1 | C=CC(=O)N1CC[C@@H](N(C)c2nc(OC[C@@]34CCCN3C[C@H](F)C4)nc3c(F)c(-c4ccc(F)c5sc(N)c(C#N)c45)c(Cl)cc23)[C@H]1C (atropisomer, axis not shown) [Compound 51] | A (percent of modification ≥70%) | A (percent of modification ≥70%) | – | – | –
2 | C=CC(=O)N1CC[C@@H](N(C)c2nc(OC[C@@]34CCCN3C[C@H](F)C4)nc3c(F)c(-c4ccc(F)c5sc(N)c(C#N)c45)c(C(F)(F)F)cc23)[C@@H]1C (atropisomer, axis not shown) [Compound 70] | A (percent of modification ≥70%) | A (percent of modification ≥70%) | A (percent of modification ≥70%) | – | –
3 | C[C@@H]1[C@H](N(C)c2nc(OC[C@@]34CCCN3C[C@H](F)C4)nc3c(F)c(-c4ccc(F)c5sc(N)c(C#N)c45)c(C(F)(F)F)cc23)CCN1C(=O)[C@@H](F)Cl (atropisomer, axis not shown) [Compound 184] | D (percent of modification <10%) | D (percent of modification <10%) | D (percent of modification <10%) | 100 to 1000 nM | –
4 | C[C@@H]1[C@H](N(C)c2nc(OC[C@@]34CCCN3C[C@H](F)C4)nc3c(F)c(-c4ccc(F)c5sc(N)c(C#N)c45)c(C(F)(F)F)cc23)CCN1C(=O)[C@@H](F)Cl (atropisomer, axis not shown) [Compound 185] | A (percent of modification ≥70%) | A (percent of modification ≥70%) | A (percent of modification ≥70%) | – | < 100 nM
5 | C[C@@H]1[C@H](N(C)c2nc(OC[C@@]34CCCN3C[C@H](F)C4)nc3c(F)c(-c4ccc(F)c5sc(N)c(C#N)c45)c(C(F)(F)F)cc23)CCN1C(=O)[C@H](F)Cl (atropisomer, axis not shown; (aS)) [Compound 182, 2-amino-4-((R)-4-(((2R,3R)-1-((R)-2-chloro-2-fluoroacetyl)-2-methylpyrrolidin-3-yl)(methyl)amino)-8-fluoro-2-(((2R,7aS)-2-fluorotetrahydro-1H-pyrrolizin-7a(5H)-yl)methoxy)-6-(trifluoromethyl)quinazolin-7-yl)-7-fluorobenzo[b]thiophene-3-carbonitrile] | D (percent of modification <10%) | D (percent of modification <10%) | D (percent of modification <10%) | 100 to 1000 nM | –
6 | C=CC(=O)N1C[C@H](C)N(c2nc(OC[C@]34CCCN3C[C@@H](F)C4)nc3c(F)c(-c4ccc(F)c5sc(N)c(C#N)c45)c(C(F)(F)F)cc23)C[C@H]1C [Compound 26] | B (50≤percent of modification <70%) | – | C (10%≤percent of modification <50%) | – | –

The remaining lines, values ahead:

Row | GppNHp-KRAS G12C percent of modification [1] | GTP-KRAS G12C percent of modification [2] | GDP-KRAS G12C percent of modification [3] | IC50 (pERK in NCI-H358 cells; Homo sapiens, NCI-H358, 0.5 h) | IC50 (pERK in NCI-H358 cells) | Compound
7 | A (percent of modification ≥70%) | A (percent of modification ≥70%) | A (percent of modification ≥70%) | – | – | C=CC(=O)N1CC[C@@H](N(C)c2nc(OC[C@@]34CCCN3C[C@H](F)C4)nc3c(F)c(-c4ccc(F)c5sc(N)c(C#N)c45)ccc23)[C@H]1C [Compound 13]
8 | A (percent of modification ≥70%) | A (percent of modification ≥70%) | A (percent of modification ≥70%) | – | – | C=CC(=O)N1CC[C@@H](N(CC)c2nc(OC[C@@]34CCCN3C[C@H](F)C4)nc3cc(-c4ccc(F)c5sc(N)c(C#N)c45)c(F)cc23)[C@H]1C [Compound 21, 4-(4-(((2R,3R)-1-acryloyl-2-methylpyrrolidin-3-yl)(ethyl)amino)-6-fluoro-2-(((2R,7aS)-2-fluorotetrahydro-1H-pyrrolizin-7a(5H)-yl)methoxy)quinazolin-7-yl)-2-amino-7-fluorobenzo[b]thiophene-3-carbonitrile]
9 | A (percent of modification ≥70%) | B (50≤percent of modification <70%) | – | < 100 nM | – | C=CC(=O)N1CC[C@@H](N(CC)c2nc(OC[C@@]34CCCN3C[C@H](F)C4)nc3c(F)c(-c4ccc(F)c5sc(N)c(C#N)c45)c(Cl)cc23)[C@H]1C [Compound 85]
10 | A (percent of modification ≥70%) | A (percent of modification ≥70%) | A (percent of modification ≥70%) | – | – | C=CC(=O)N1CC[C@@H](N(C)c2nc(O[C@@H](C)[C@@H]3C[C@@H](OC)CN3C)nc3c(F)c(-c4ccc(F)c5sc(N)c(C#N)c45)c(C(F)(F)F)cc23)[C@H]1C [Compound 192]
